Drawing on ChEMBL document CHEMBL1155389, “Selectively nonselective kinase inhibition: striking the right balance” (J Med Chem, 2010), this text covers IC50 and bioavailability for 16 compounds.

One data set addresses Bcr/Abl fusion protein (Homo sapiens, UniProt P00519). It counts as protein assay.
The target of data set [1] is Tyrosine-protein kinase ABL1 (Homo sapiens, UniProt P00519).
Description: Inhibition of wild type Abl
A short description of data set [2]: Inhibition of GSK3.
Data set [3] deals with Dual specificity tyrosine-phosphorylation-regulated kinase 1A (Homo sapiens, UniProt Q13627). Put plainly: Inhibition of DYRK1A.
Data set [4] concerns the target Cyclin-dependent kinase 5 (Homo sapiens, UniProt Q00535). Put plainly: Inhibition of CDK5.
Data set [5] addresses Mast/stem cell growth factor receptor Kit (Homo sapiens, UniProt P10721).
The target in the next data set is T1, Dihydrofolate reductase (Homo sapiens, UniProt P00374).
T1 sequence (P00374 whole entry): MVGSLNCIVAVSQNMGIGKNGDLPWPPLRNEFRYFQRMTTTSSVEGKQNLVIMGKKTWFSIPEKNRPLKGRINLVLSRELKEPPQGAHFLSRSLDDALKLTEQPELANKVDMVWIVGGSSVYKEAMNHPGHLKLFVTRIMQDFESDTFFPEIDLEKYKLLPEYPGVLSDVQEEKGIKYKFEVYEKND
Put plainly: Inhibition of DHFR.

Data set [6] addresses Vascular endothelial growth factor receptor 2 (Homo sapiens, UniProt P35968).
Data set [7] in a line: Inhibition of HDAC.
Data set [8] in a line: Inhibition of p38.
Data set [9] addresses Mitogen-activated protein kinase 10 (Homo sapiens, UniProt P53779). Put plainly: Inhibition of JNK3.
The target of data set [10] is Cyclin-dependent kinase 1 (Homo sapiens, UniProt P06493). Put plainly: Inhibition of CDK1.
The target of data set [11] is Glycogen synthase kinase-3 beta (Homo sapiens, UniProt P49841). Put plainly: Inhibition of GSK3-beta.
For data set [12], the target named is Casein kinase I isoform alpha (Homo sapiens, UniProt P48729). Put plainly: Inhibition of CK1.
Data set [13] in a line: Inhibition of PDGFR.
Data set [14] concerns the target RAC-alpha serine/threonine-protein kinase (Homo sapiens, UniProt P31749).
Data set [15] deals with Receptor tyrosine-protein kinase erbB-2 (Homo sapiens, UniProt P04626).
Data set [16] has as its target Epidermal growth factor receptor (Homo sapiens, UniProt P00533).
Data set [17] deals with Insulin-like growth factor 1 receptor (Homo sapiens, UniProt P08069).
A short description of data set [18]: Oral bioavailability in mouse. It counts as ADME, organism-based. The note with it: in vivo.
Data set [19] addresses Voltage-gated inwardly rectifying potassium channel KCNH2 (Homo sapiens, UniProt Q12809). Put plainly: Inhibition of ERG.
Data set [20] has as its target Proto-oncogene tyrosine-protein kinase Src (Homo sapiens, UniProt P12931).
For data set [21], the target named is Nitric oxide synthase, inducible (Homo sapiens, UniProt P35228). Put plainly: Inhibition of iNOS.

Where only a bound is given, the exact number is not on record here.

Chain of Bcr/Abl fusion protein (P00519 whole entry, the tested form may be a part): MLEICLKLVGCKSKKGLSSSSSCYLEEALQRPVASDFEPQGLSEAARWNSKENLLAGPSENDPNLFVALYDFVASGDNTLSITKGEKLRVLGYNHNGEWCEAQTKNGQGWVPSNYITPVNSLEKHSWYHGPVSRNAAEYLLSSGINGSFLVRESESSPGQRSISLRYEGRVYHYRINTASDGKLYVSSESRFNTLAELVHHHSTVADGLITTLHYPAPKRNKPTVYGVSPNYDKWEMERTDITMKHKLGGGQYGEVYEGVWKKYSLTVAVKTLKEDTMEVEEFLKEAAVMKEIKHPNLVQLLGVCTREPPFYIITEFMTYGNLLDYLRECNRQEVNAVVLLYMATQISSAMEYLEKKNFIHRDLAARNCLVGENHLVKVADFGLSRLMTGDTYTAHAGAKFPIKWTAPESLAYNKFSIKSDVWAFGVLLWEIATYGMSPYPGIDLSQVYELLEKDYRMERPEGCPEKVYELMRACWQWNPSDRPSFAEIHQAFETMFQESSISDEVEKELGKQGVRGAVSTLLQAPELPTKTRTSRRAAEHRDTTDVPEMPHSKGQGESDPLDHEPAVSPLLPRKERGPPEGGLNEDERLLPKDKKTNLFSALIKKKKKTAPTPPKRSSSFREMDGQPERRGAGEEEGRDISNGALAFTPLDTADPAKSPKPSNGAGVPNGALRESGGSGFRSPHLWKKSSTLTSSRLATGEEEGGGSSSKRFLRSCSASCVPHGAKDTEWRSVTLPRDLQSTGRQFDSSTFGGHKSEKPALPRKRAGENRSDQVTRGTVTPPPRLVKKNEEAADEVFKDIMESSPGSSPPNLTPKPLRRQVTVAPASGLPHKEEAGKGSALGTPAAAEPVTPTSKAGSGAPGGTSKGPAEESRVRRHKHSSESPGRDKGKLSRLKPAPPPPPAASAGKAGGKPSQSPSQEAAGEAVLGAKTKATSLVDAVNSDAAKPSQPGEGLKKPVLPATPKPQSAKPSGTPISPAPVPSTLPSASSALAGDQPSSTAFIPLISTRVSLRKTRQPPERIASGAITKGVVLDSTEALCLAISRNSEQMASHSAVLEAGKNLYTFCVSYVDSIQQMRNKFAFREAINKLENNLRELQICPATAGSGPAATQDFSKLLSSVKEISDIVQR
Chain of Bcr/Abl fusion protein (P11274 whole entry, further chain, the tested form may be a part): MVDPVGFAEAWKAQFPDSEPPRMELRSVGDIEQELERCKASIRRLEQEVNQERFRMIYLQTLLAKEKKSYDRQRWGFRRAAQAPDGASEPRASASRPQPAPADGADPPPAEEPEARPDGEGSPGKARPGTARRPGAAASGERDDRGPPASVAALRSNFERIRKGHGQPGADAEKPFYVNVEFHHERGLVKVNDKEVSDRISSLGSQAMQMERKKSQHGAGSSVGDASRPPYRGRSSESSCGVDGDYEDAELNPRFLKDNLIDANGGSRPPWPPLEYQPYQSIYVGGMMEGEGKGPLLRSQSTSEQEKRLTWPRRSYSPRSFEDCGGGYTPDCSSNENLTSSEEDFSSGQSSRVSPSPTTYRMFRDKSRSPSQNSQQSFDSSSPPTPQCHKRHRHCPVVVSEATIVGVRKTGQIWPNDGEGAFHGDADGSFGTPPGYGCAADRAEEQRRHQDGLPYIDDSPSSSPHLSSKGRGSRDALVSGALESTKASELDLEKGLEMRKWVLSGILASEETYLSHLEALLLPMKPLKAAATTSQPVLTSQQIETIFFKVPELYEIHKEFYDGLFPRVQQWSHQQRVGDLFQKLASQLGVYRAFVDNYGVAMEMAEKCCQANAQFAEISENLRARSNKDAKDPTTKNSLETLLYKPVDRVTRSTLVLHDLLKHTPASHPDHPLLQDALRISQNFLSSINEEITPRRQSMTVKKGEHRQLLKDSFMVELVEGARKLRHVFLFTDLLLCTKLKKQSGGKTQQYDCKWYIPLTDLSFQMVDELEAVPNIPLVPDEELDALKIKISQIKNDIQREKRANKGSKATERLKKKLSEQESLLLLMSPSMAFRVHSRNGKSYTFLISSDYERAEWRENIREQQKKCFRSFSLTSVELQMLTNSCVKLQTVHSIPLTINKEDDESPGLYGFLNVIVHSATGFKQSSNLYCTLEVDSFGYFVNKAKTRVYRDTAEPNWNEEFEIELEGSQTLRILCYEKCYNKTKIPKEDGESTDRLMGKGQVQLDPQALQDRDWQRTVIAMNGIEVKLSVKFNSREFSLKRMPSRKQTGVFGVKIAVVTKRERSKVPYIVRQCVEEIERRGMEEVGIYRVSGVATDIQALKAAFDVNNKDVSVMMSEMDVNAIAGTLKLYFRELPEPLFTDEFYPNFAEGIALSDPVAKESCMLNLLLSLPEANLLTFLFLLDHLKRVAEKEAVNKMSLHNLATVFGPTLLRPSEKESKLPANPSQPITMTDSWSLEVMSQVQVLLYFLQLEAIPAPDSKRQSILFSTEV
Chain of Epidermal growth factor receptor (P00533 whole entry): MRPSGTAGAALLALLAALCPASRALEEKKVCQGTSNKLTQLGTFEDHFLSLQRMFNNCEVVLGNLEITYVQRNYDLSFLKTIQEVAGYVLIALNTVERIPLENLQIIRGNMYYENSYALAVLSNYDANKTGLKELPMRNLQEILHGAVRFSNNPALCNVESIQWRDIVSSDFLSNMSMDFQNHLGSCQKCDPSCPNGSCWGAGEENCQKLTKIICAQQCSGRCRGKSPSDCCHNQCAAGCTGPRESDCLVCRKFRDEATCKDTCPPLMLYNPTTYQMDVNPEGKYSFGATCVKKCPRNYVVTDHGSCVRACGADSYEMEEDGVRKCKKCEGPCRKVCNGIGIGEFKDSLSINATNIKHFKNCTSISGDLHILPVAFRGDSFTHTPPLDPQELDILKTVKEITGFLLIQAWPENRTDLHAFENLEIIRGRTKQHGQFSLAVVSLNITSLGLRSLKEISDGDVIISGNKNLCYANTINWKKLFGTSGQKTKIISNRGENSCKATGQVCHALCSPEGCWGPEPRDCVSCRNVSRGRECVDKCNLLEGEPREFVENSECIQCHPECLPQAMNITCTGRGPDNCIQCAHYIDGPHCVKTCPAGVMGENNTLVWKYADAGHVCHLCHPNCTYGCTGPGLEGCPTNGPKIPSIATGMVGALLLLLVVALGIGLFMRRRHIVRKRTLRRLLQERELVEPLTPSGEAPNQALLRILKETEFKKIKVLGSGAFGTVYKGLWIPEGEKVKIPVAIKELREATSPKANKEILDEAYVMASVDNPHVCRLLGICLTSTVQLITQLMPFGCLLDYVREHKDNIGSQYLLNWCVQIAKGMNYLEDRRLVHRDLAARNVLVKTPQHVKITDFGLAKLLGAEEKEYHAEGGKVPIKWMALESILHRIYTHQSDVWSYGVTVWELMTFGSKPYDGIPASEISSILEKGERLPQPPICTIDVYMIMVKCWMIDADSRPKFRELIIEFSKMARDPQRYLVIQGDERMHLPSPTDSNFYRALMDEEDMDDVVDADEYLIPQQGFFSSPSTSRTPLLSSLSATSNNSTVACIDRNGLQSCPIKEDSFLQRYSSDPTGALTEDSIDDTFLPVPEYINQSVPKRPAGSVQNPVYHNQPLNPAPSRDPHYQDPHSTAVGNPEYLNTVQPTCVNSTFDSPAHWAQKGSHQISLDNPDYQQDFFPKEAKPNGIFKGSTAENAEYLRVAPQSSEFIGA
Chain of Insulin-like growth factor 1 receptor (P08069 31-736 limits assumed): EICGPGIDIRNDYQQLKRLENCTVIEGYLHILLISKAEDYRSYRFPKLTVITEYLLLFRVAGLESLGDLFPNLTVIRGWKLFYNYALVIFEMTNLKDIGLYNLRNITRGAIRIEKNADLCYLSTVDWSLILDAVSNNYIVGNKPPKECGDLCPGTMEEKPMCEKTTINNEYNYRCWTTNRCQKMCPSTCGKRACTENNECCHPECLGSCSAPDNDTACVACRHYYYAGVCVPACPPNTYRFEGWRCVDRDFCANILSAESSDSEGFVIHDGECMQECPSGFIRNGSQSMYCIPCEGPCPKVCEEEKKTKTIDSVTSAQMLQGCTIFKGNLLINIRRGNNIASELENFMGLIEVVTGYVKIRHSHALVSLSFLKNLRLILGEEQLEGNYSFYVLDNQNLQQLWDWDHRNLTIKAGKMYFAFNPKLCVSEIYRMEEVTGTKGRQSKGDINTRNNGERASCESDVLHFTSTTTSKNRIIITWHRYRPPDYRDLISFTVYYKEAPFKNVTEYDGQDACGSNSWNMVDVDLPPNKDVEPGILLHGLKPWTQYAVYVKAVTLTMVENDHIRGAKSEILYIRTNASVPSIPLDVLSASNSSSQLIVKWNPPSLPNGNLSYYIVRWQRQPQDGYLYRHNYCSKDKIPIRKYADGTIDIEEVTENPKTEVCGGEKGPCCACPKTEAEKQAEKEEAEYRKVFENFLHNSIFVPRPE
Chain of Insulin-like growth factor 1 receptor (P08069 741-1367 limits assumed): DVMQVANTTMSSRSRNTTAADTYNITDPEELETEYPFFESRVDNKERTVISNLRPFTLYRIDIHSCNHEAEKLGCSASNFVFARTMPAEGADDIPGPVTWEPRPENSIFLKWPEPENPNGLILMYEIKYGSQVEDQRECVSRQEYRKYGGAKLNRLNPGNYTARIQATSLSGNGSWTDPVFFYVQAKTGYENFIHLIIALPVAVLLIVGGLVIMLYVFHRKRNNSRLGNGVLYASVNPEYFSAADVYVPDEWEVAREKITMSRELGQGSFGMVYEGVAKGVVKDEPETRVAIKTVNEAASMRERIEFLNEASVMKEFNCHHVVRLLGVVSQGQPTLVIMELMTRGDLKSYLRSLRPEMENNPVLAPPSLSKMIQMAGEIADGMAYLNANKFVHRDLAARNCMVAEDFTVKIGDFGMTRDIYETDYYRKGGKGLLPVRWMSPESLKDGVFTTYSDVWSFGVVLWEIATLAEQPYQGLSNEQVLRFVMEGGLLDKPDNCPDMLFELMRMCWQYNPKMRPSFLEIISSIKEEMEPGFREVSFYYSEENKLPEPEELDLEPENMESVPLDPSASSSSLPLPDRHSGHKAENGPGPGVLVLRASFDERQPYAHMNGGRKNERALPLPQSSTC
Chain of Tyrosine-protein kinase ABL1 (P00519 whole entry): as the sequence (P00519 whole entry, the tested form may be a part) above
Description for Bcr/Abl fusion protein: Inhibition of wild type Bcr-Abl

As for `Cc1cn(-c2cc(NC(=O)c3ccc(C)c(/C=C/N4CNc5c(NC6CC6)ncnc54)c3)cc(C(F)(F)F)c2)cn1`, the IC50 against Bcr/Abl fusion protein amounted to 8 nM; in data set [1] it was 25 nM.
As for `N#Cc1c(N)cc2[nH]nc(N)c2c1-c1ccccc1`, the results for the IC50 in [2], in [3] and in [4] were 15000 nM, 410 nM and 11000 nM, respectively.
For the compound `Cc1ccc(-c2ccnc(Nc3cc(NC(=O)c4ccc(CN5CCN(C)CC5)cc4)ccc3C)n2)cn1`, the IC50 in data set [5] was 43 nM; against Bcr/Abl fusion protein it was 11000 nM.
For `C/C(=C/c1coc2nc(N)nc(N)c12)c1cccc2ccccc12`, the values for the IC50 (against Dihydrofolate reductase; in data set [6]) were 10000 nM and 2000 nM, respectively.
In the case of `Cc1ccc(NC(=O)c2ccc(/C=C/C(=O)NO)cc2)cc1Nc1nc(-c2cccnc2)cs1`, the IC50 against Bcr/Abl fusion protein was found to be 2700 nM; in data set [7], 80 nM.
Turning to `c1ccc(-c2noc(CN3CCCCC3)c2-c2ccnc(NC3CCCCC3)n2)cc1`, the IC50 in data set [8] is 2 nM; in data set [9], 26 nM.
As for `CCC(CO)Nc1nc(Nc2cccc(-c3ccccn3)c2)c2ncn(C(C)C)c2n1` (stereo unspecified), the IC50 came to 220 nM in data set [10], 4100 nM in data set [11] and 14 nM in [12].
Take `Nc1ncnc2c1c(-c1cnc3[nH]ccc3c1)nn2C1CCCC1`: in data set [13], 2 nM corresponded to half-maximal inhibition (IC50).
On to `Cn1nnnc1-c1cnc(-c2ccc(CN3CCC(n4c(=O)[nH]c5ccccc54)CC3)cc2)c(-c2ccccc2)c1`, for which the IC50 in data set [14] was determined as 273 nM.
As to `COCCCN1CCC([C@H]2CC[C@H](n3nc(-c4ccc5nc(Cc6ccccc6Cl)[nH]c5c4)c4c(N)ncnc43)CC2)CC1`, the IC50 in data set [15] was 54 nM; in data set [16] it was 58 nM; in data set [17] it was 81 nM.
As to `COc1ccccc1Cc1nc2ccc(-c3nn([C@H]4CC[C@H](C5CCN(C)CC5)CC4)c4ncnc(N)c34)cc2[nH]1`, in data set [18], the bioavailability is 12%. Moreover, the IC50 stood at 58 nM in data set [16] and 81 nM in data set [17].
`c1ccc(-c2cc3c(ccn4cnnc34)nc2-c2ccc(CN3CCC(c4nnc(-c5ccccn5)[nH]4)CC3)cc2)cc1` returned an IC50 in data set [19] of over 10000 nM.
Consider `Cc1cc2c(Nc3ccc4nc(N)sc4c3)c(C#N)cnc2cc1OCCN1CCCCC1`, for which the IC50 was 15 nM in data set [20] and 313000 nM in [21].
Compound `C#Cc1cccc(Nc2ncnc3cc(OC)c(OCCCCCCC(=O)NO)cc23)c1` [CUDC-101] came in with an IC50 in [7] of 4.4 nM. In other words, the single-digit nanomolar range.
`Cc1ccc(NC(=O)c2ccc(CN3CCN(C)CC3)cc2)cc1Nc1nccc(-c2cccnc2)n1` [IMATINIB]: the IC50 was 39 nM in data set [13] and over 100 nM in [7].
Consider `Cc1cn(-c2cc(NC(=O)c3ccc(C)c(Nc4nccc(-c5cccnc5)n4)c3)cc(C(F)(F)F)c2)cn1` [NILOTINIB], for which 25 nM corresponded to half-maximal inhibition in [13] (IC50).
